{
  "source": "paper PMC9138505",
  "about": "“Small Molecule 20S Proteasome Enhancer Regulates MYC Protein Stability and Exhibits Antitumor Activity in Multiple Myeloma” (Biomedicines, 2022)",
  "test_system": "RPMI-8226 cells",
  "test": "Gene expression profiling, NanoString nCounter PanCancer Pathways Panel, ROSALIND analysis",
  "type": "cell-based, human",
  "details": "RPMI-8226, TCH-165 samples 1-3",
  "protocol": "RPMI-8226 cells were treated with vehicle or TCH-165 (10 μM) for 4 h. Total RNA was obtained using the mirVana miRNA Isolation Kit, with phenol (Thermofisher Scientific; AM1560; Waltham, MA, USA). Total RNA was quantified by Qubit (Thermofisher Scientific; Q32855; Waltham, MA, USA). and gene expression was evaluated against the nCounter® PanCancer Pathways Panel^TM according to the standard NanoString protocol.\nData were analyzed by ROSALIND® [36] with a hyperscale architecture developed by ROSALIND, Inc. (San Diego, CA, USA). Normalization, fold changes and p-values were calculated using criteria provided by NanoString. ROSALIND follows the nCounter® Advanced Analysis protocol of dividing counts within a lane by the geometric mean of the normalizer probes from the same lane. Housekeeping probes to be used for normalization are selected based on the geNorm algorithm, as implemented in the NormqPCR R library. Fold changes and p-values are calculated using the fast method as described in the nCounter Advanced Analysis 2.0 User Manual. The p-value adjustment is performed using the Benjamini–Hochberg method of estimating false discovery rates (FDR). Clustering of genes for the final heatmap of differentially expressed genes was done using the PAM (Partitioning Around Medoids) method using the fpc R library. Hypergeometric distribution was used to analyze the enrichment of pathways, gene ontology, domain structure and other ontologies. The topGO R library was used to determine local similarities and dependencies between GO terms in order to perform Elim pruning correction. Several database sources were referenced for enrichment analysis, including Interpro [40], NCBI [41], MSigDB [42, 43], REACTOME [44], WikiPathways. Enrichment was calculated relative to a set of background genes relevant to the experiment.",
  "note": "Where “and” joins values, the source holds several entries; their conditions need not be identical. Equal values may be shown once.",
  "data": [
    {"compound": "CCOC(=O)[C@]1(c2ccccc2)N=C(c2ccc(OC)cc2)N(Cc2ccccc2)[C@@H]1c1ccc(NCc2ccccc2)cc1", "note": "[TCH-165]", "values": [
      {"measurement": "CDKN2A normalized gene expression", "result": "7.059 and 6.817 and 7.045"},
      {"measurement": "CDKN2B normalized gene expression", "result": "5.827 and 5.402 and 5.787"},
      {"measurement": "CDKN2C normalized gene expression", "result": "2.401 and 2.3768 and 2.653"},
      {"measurement": "CDKN2D normalized gene expression", "result": "6.667 and 6.808 and 7.091"},
      {"measurement": "CEBPA normalized gene expression", "result": "4.308 and 4.029 and 4.291"},
      {"measurement": "CEBPE normalized gene expression", "result": "3.723 and 3.739 and 3.291"},
      {"measurement": "CHAD normalized gene expression", "result": "4.986 and 5.093 and 4.805"},
      {"measurement": "CHEK1 normalized gene expression", "result": "9.816 and 9.813 (2×)"},
      {"measurement": "CHEK2 normalized gene expression", "result": "8.6438 and 8.491 and 8.618"},
      {"measurement": "CHUK normalized gene expression", "result": "8.745 and 8.67 and 8.685"},
      {"measurement": "CIC normalized gene expression", "result": "6.793 and 6.427 and 6.731"},
      {"measurement": "CLCF1 normalized gene expression", "result": "3.723 and 4.2133 and 3.184"},
      {"measurement": "CNTFR normalized gene expression", "result": "4.723 and 5.093 and 4.653"},
      {"measurement": "COL1A1 normalized gene expression", "result": "4.649 and 4.524 and 3.943"},
      {"measurement": "COL1A2 normalized gene expression", "result": "3.401 and 3.154 and 4.0068"},
      {"measurement": "COL2A1 normalized gene expression", "result": "6.015 and 6.817 and 6.494"},
      {"measurement": "COL3A1 normalized gene expression", "result": "4.86 and 4.093 and 4.731"},
      {"measurement": "COL4A3 normalized gene expression", "result": "6.182 and 5.798 and 6.156"},
      {"measurement": "COL4A4 normalized gene expression", "result": "3.208 and 3.739 and 4.613"},
      {"measurement": "COL4A5 normalized gene expression", "result": "4.571 and 3.962 and 3.876"},
      {"measurement": "COL4A6 normalized gene expression", "result": "3.208 and 3.476 and 3.0682"},
      {"measurement": "COL5A1 normalized gene expression", "result": "6.156 and 5.3768 and 5.823"},
      {"measurement": "COL5A2 normalized gene expression", "result": "4.649 and 4.524 and 4.184"},
      {"measurement": "COL11A1 normalized gene expression", "result": "4.793 and 4.029 and 4.184"},
      {"measurement": "COL11A2 normalized gene expression", "result": "3.571 and 3.029 and 2.483"},
      {"measurement": "COMP normalized gene expression", "result": "3.571 and 4.093 and 4.0682"},
      {"measurement": "CREB5 normalized gene expression", "result": "6.467 and 6.324 and 6.437"},
      {"measurement": "CREBBP normalized gene expression", "result": "5.488 and 4.855 and 5.156"},
      {"measurement": "CSF1R normalized gene expression", "result": "3.401 and 3.739 and 3.653"},
      {"measurement": "CSF2 normalized gene expression", "result": "3.86 and 4.029 and 3.291"},
      {"measurement": "CSF3R normalized gene expression", "result": "4.571 and 3.962 and 4.39"},
      {"measurement": "CSF3 normalized gene expression", "result": "4.208 and 3.739 and 3.805"},
      {"measurement": "CTNNB1 normalized gene expression", "result": "11.1942 and 11.0314 and 10.9756"},
      {"measurement": "CUL1 normalized gene expression", "result": "11.4237 and 11.3932 and 11.3628"},
      {"measurement": "CXCL8 normalized gene expression", "result": "7.908 and 8.053 and 8.0531"},
      {"measurement": "CYLD normalized gene expression", "result": "9.829 and 9.692 and 9.711"},
      {"measurement": "DAXX normalized gene expression", "result": "9.74 and 9.747 and 9.706"},
      {"measurement": "DDB2 normalized gene expression", "result": "8.97 and 9.039 and 9.005"},
      {"measurement": "DDIT3 normalized gene expression", "result": "11.9124 and 11.8557 and 11.855"},
      {"measurement": "DDIT4 normalized gene expression", "result": "9.959 and 9.961 and 9.982"},
      {"measurement": "DKK1 normalized gene expression", "result": "5.259 and 4.699 and 4.769"},
      {"measurement": "DKK2 normalized gene expression", "result": "5.488 and 4.657 and 4.805"},
      {"measurement": "DKK4 normalized gene expression", "result": "4.986 and 4.855 and 4.975"},
      {"measurement": "DLL1 normalized gene expression", "result": "4.308 and 4.029 and 3.5707"},
      {"measurement": "DLL3 normalized gene expression", "result": "5.101 and 4.427 and 4.5707"},
      {"measurement": "DLL4 normalized gene expression", "result": "5.401 and 4.817 and 5.211"},
      {"measurement": "DNMT1 normalized gene expression", "result": "10.7929 and 10.7224 and 10.7359"},
      {"measurement": "DNMT3A normalized gene expression", "result": "7.355 and 7.311 and 7.414"},
      {"measurement": "DTX1 normalized gene expression", "result": "5.156 and 5.402 and 5.592"},
      {"measurement": "DTX4 normalized gene expression", "result": "5.793 and 5.996 and 5.9095"},
      {"measurement": "DUSP2 normalized gene expression", "result": "6.378 and 6.364 and 6.623"},
      {"measurement": "DUSP4 normalized gene expression", "result": "7.667 and 7.581 and 7.494"},
      {"measurement": "DUSP5 normalized gene expression", "result": "10.8611 and 10.8321 and 10.8236"},
      {"measurement": "DUSP6 normalized gene expression", "result": "8.008 and 8.128 and 8.003"},
      {"measurement": "DUSP8 normalized gene expression", "result": "6.876 and 6.44 and 6.56"},
      {"measurement": "DUSP10 normalized gene expression", "result": "7.221 and 7.177 and 7.1906"},
      {"measurement": "E2F1 normalized gene expression", "result": "9.135 and 9.126 and 9.063"},
      {"measurement": "E2F5 normalized gene expression", "result": "9.349 and 9.291 and 9.221"},
      {"measurement": "EFNA1 normalized gene expression", "result": "6.283 and 5.2133 and 5.39"},
      {"measurement": "EFNA2 normalized gene expression", "result": "4.924 and 5.2133 and 5.0068"},
      {"measurement": "EFNA3 normalized gene expression", "result": "8.052 and 8.008 and 8.0531"},
      {"measurement": "EFNA5 normalized gene expression", "result": "5.649 and 4.739 and 4.943"},
      {"measurement": "EGF normalized gene expression", "result": "4.86 and 4.569 and 5.0682"},
      {"measurement": "EGFR normalized gene expression", "result": "5.892 and 5.524 and 5.461"},
      {"measurement": "EIF4EBP1 normalized gene expression", "result": "10.6929 and 10.6602 and 10.7353"},
      {"measurement": "ENDOG normalized gene expression", "result": "9.908 and 9.9873 and 9.891"},
      {"measurement": "EP300 normalized gene expression", "result": "9.491 and 9.463 and 9.424"},
      {"measurement": "EPHA2 normalized gene expression", "result": "3.208 and 2.891 and 1.805"},
      {"measurement": "EPO normalized gene expression", "result": "5.101 and 4.324 and 4.483"},
      {"measurement": "EPOR normalized gene expression", "result": "7.259 and 7.147 and 7.1271"},
      {"measurement": "ERBB2 normalized gene expression", "result": "6.044 and 5.427 and 5.291"},
      {"measurement": "ERCC2 normalized gene expression", "result": "6.924 and 6.657 and 6.5707"},
      {"measurement": "ERCC6 normalized gene expression", "result": "6.509 and 6.581 and 6.5707"},
      {"measurement": "ETS2 normalized gene expression", "result": "9.802 and 9.726 and 9.794"},
      {"measurement": "ETV1 normalized gene expression", "result": "9.48 and 9.485 and 9.458"},
      {"measurement": "ETV4 normalized gene expression", "result": "7.978 and 7.949 and 7.741"},
      {"measurement": "ETV7 normalized gene expression", "result": "4.723 and 4.962 and 4.528"},
      {"measurement": "EYA1 normalized gene expression", "result": "7.74 and 7.85 and 7.863"},
      {"measurement": "EZH2 normalized gene expression", "result": "10.3563 and 10.2507 and 10.2954"},
      {"measurement": "FANCA normalized gene expression", "result": "7.073 and 6.808 and 7.015"},
      {"measurement": "FANCB normalized gene expression", "result": "7.62 and 7.291 and 7.576"},
      {"measurement": "FANCC normalized gene expression", "result": "7.86 and 7.614 and 7.764"},
      {"measurement": "FANCE normalized gene expression", "result": "7.61 and 7.608 and 7.587"},
      {"measurement": "FANCF normalized gene expression", "result": "8.337 and 8.334 and 8.268"},
      {"measurement": "FANCG normalized gene expression", "result": "7.571 and 7.364 and 7.478"},
      {"measurement": "FANCL normalized gene expression", "result": "8.9359 and 8.968 and 8.918"},
      {"measurement": "FAS normalized gene expression", "result": "6.723 and 6.719 and 6.613"},
      {"measurement": "FASLG normalized gene expression", "result": "5.044 and 4.614 and 4.769"},
      {"measurement": "FEN1 normalized gene expression", "result": "11.0932 and 10.9634 and 10.9666"},
      {"measurement": "FGF1 normalized gene expression", "result": "4.723 and 4.524 and 5.098"}
    ]}
  ]
}
